# Assay results from patent US9682999B2, “Benzofuran compounds for the treatment of hepatitis C virus infections” (Glaxo Group Limited, priority 2011, dated 2017).
# Like-named read-outs stand apart in the source and are kept apart here.
# Assays:
# [1] = test system: sub-genomic HCV NS3-NS5B replicon genotype 1b C316N (Huh-7 cells); test: Replicon luciferase cell based assay, genotype 1b C316N; details: read-out: EC50 1b 316N
# Experimental: (§1) 150 μL of a 1 mM stock solution in DMSO of each test compound was transferred into in the first column of a 96 well, V-bottom microplate, to give 200 times the top concentration of the required dilution series. Aliquots of 50 μL were added to each well of the remaining rows containing 100 μL of DMSO giving a 1:3 dilution series over ten points. Columns 11 and 12 contained DMSO only for the positive and negative control, respectively. 10 μL of each well were transferred into 90 μL of DMEM medium (Invitrogen #41965-039) supplemented with 5% v/v foetal calf serum, 1% v/v non-essential amino acids solution, 100 units/ml penicillin, 100 μg/ml streptomycin and 2 mM L-glutamine to give 20 times the top concentration of the required dilution series.
# (§2) Suspensions were prepared from cultures of Huh-7 cells stably transfected with sub-genomic HCV NS3-NS5B replicons of either genotype 1b (the ET subline described by Pietschmann, T., Lohmann, V., Kaul, A., Krieger, N., Rinck, G., Rutter, G., Strand, D. & Bartenschlager, R., Journal of Virology, 2002, 76, 4008-4021), genotype 1a (subline 1.19 constructed in-house from H77 SG-Neo containing adaptive mutations P1496L and S2204I as described by Blight, K. J., McKeating, J. A., Marcotrigiano, J., and Rice, C. M. Journal of Virology, 2003, 77, 3180-3190), genotype 1b C316N (constructed in-house by site directed mutagenesis of the NS5B gene of the ET subline), or genotype 1a C316Y (constructed in-house by site directed mutagenesis of the NS5B gene of H77 SG-Neo containing adaptive mutations P1496L and S2204I as described by Blight, K. J., McKeating, J. A., Marcotrigiano, J., and Rice, C. M. Journal of Virology, 2003, 77, 3180-3190) linked to a firefly luciferase reporter gene. Monolayers nearing confluency were stripped from growth flasks with versene-trypsin solution and the cells re-suspended in assay medium comprising DMEM. 95 μL of suspension containing either 15,000 cells (genotype 1b luciferase replicon) or 20,000 cells (genotype 1a luciferase replicon) were added to all wells of a 96 well plate (Perkin Elmer, #6005686), except medium controls in column 12 of the assay plate. The cell suspension was dosed with 5 μL of compound solution and the plate was incubated for 48 hours at 37° C. in a 5% CO2 atmosphere.
# (§3) For toxicity the cells in one plate were treated with Cell Titer Glo (Promega, #G7573). A solution of Cell Titer Glo was prepared according to the manufacturer's instructions, and 100 μL added to each well. The plate was then read for luminescence on an Envision. For potency a solution of Steady Glo (Promega, #E2550) was prepared according to the manufacturer's instructions and 100 μL added to each well. After a twenty minute incubation the plate was then read for luminescence on an Envision.
# (§4) Potency: The luminescence values from all compound-free wells containing cells were averaged to obtain a positive control value. The mean luminescence value from the compound-free wells that had received no cells was used to provide the negative (background) control value. The readings from the wells at each compound concentration were taken and after the subtraction of the mean background from all values, were expressed as a percentage of the positive control signal. The quantifiable and specific reduction of luciferase signal in the presence of a drug is a direct measure of replicon inhibition. BioAssay Enterprise (CamebridgeSoft) with the XC50 module for curve fitting was used to plot the curve of percentage inhibition against compound concentration and derive the 50% inhibitory concentration (EC50) for the compound. EC50 is the effective concentration, that is, the concentration of compound where 50% maximal effect is observed. The EC50 values of two identical plates were averaged. The results are presented in Table 1 as EC50 for genotypes (GT) 1a, 1b, 1b 316N and 1a 316Y.
# [2] = test system: sub-genomic HCV NS3-NS5B replicon genotype 1b (Huh-7 cells); test: Replicon luciferase cell based assay, genotype 1b; details: Hepatitis C virus; Huh-7 genotype 1b luciferase replicon, 48 hours; read-out: EC50 GT1b
# Experimental: as §1, §2, §3, §4
# [3] = test system: sub-genomic HCV NS3-NS5B replicon genotype 1a (Huh-7 cells); test: Replicon luciferase cell based assay, genotype 1a; details: Huh-7 genotype 1a luciferase replicon, 48 hours, read-out: EC50 GT 1a
# Experimental: as §1, §2, §3, §4
# [4] = test system: sub-genomic HCV NS3-NS5B replicon genotype 1a C316Y (Huh-7 cells); test: Replicon luciferase cell based assay, genotype 1a C316Y; details: Hepatitis C virus, Huh-7, 48 h, read-out: EC50 1a 316Y
# Experimental: as §1, §2, §3, §4
# [5] = In vivo pharmacokinetic study, rat
# Experimental: In vivo pharmacokinetic studies were conducted in mouse, rat, dog, or cynomolgus monkey to determine clearance, oral exposure and bioavailability (% F). Solution doses of the compounds were administered intravenously through catheters or orally by gavage. Blood samples were collected at the following time points (n=2 or 3/route/species): 0.083 (IV only), 0.167 (IV only), 0.25, 0.5, 1, 2, 4, 6, 8, 12, and 24 h. Non-compartmental pharmacokinetic parameters were determined using Phoenix Winnonlin 6.1 (Pharsight, Mountain View, Calif.). Bioavailability of the oral formulation of each compound were calculated as the ratio of the oral dose normalized AUCinf to the intravenous dose normalized AUCinf. Results are expressed in Table 2.
Structure (SMILES),"EC50 ([1]; Hepatitis C virus, Huh-7, 48 h) [nM]",EC50 [2] [nM],EC50 ([3]; Hepatitis C virus) [nM],EC50 [4] [nM],further results
"CNC(=O)c1c(-c2ccc(F)cc2)oc2cc(N(c3ccc(B(O)O)c(C(F)F)c3)S(C)(=O)=O)c(C3CC3)cc12 [Example 9, (4-(N-(5-cyclopropyl-2-(4-fluorophenyl)-3-(methylcarbamoyl)benzofuran-6-yl)methylsulfonamido)-2-(difluoromethyl)phenyl)boronic acid]",1 to 10,1 to 10,1 to 10,11 to 200,
"CNC(=O)c1c(-c2ccc(F)cc2)oc2cc(N(c3cccc(B(O)O)c3)S(C)(=O)=O)c(C3CC3)cc12 [Example 4, 3-(N-(5-cyclopropyl-2-(4-fluorophenyl)-3-(methylcarbamoyl)benzofuran-6-yl)methylsulfonamido)phenylboronic acid]",11 to 200,1 to 10,1 to 10,> 1000,
"CNC(=O)c1c(-c2ccc(Cl)cc2)oc2cc(N(c3ccc(B(O)O)c(C#N)c3)S(C)(=O)=O)c(C3CC3)cc12 [Example 21, (4-(N-(2-(4-Chlorophenyl)-5-cyclopropyl-3-(methylcarbamoyl)benzofuran-6-yl)methylsulfonamido)-2-cyanophenyl)boronic acid]",1 to 10,1 to 10,1 to 10,1 to 10,
CNC(=O)c1c(-c2ccc(Cl)cc2)oc2cc(N(Cc3ccc(B(O)O)c(F)c3)S(C)(=O)=O)c(C3CC3)cc12 [C],,,,,"DNAUC ([5]; Rat): 434 ng·h/mL/mg/kg; T 1/2 ([5]; Rat): 1.8 H; clearance ([5]; rat, blood, intravenous): 15.6 mL/min/kg; Vd ([5]; rat, blood, intravenous, read-out: Vss): 1.1 L/kg; bioavailability ([5]; rat, blood, oral): 40%"
"CNC(=O)c1c(-c2ccc(F)cc2)oc2cc(N(c3ccc(C4CCB(O)O4)c(Cl)c3)S(C)(=O)=O)c(C3CC3)cc12 (single isomer, unassigned; enantiomer 1) [Example 28, 6-(N-(3-Chloro-4-(2-hydroxy-1,2-oxaborolan-5-yl)phenyl)methylsulfonamido)-5-cyclopropyl-2-(4-fluorophenyl)-N-methylbenzofuran-3-carboxamide, enantiomer 1]",11 to 200,1 to 10,1 to 10,11 to 200,
"CNC(=O)c1c(-c2ccc(Cl)cc2)oc2cc(N(c3ccc(B(O)O)c(Cl)c3)S(C)(=O)=O)c(C3CC3)cc12 [Example 2, (2-Chloro-4-(N-(2-(4-chlorophenyl)-5-cyclopropyl-3-(methylcarbamoyl)benzofuran-6-yl)methylsulfonamido)phenyl)boronic acid]",1 to 10,1 to 10,1 to 10,1 to 10,
"CNC(=O)c1c(-c2ccc(F)cc2)oc2cc(N(c3ccc(OCB(O)O)c(Cl)c3)S(C)(=O)=O)c(C3CC3)cc12 [Example 19, ((2-Chloro-4-(N-(5-cyclopropyl-2-(4-fluorophenyl)-3-(methylcarbamoyl)benzofuran-6-yl)methylsulfonamido)phenoxy)methyl)boronic acid]",1 to 10,1 to 10,1 to 10,1 to 10,
"CNC(=O)c1c(-c2ccc(F)cc2)oc2cc(N(c3ccc(C4CCB(O)O4)c(Cl)c3)S(C)(=O)=O)c(C3CC3)cc12 (single isomer, unassigned; enantiomer 2) [Example 29, 6-(N-(3-Chloro-4-(2-hydroxy-1,2-oxaborolan-5-yl)phenyl)methylsulfonamido)-5-cyclopropyl-2-(4-fluorophenyl)-N-methylbenzofuran-3-carboxamide, enantiomer 2]",,,,,"EC50 ([1]; Huh-7 genotype 1b C316N luciferase replicon, 48 hours): 11 to 200 nM; EC50 [3]: 1 to 10 nM"
"CNC(=O)c1c(-c2ccc(F)cc2)oc2cc(N(c3ccc(B(O)O)c(S(C)(=O)=O)c3)S(C)(=O)=O)c(C3CC3)cc12 [Example 16, (4-(N-(5-cyclopropyl-2-(4-fluorophenyl)-3-(methylcarbamoyl)benzofuran-6-yl)methylsulfonamido)-2-(methylsulfonyl)phenyl)boronic acid]",11 to 200,1 to 10,1 to 10,11 to 200,
"CNC(=O)c1c(-c2ccc(F)cc2)oc2cc(N(c3ccc(B(O)O)cc3F)S(C)(=O)=O)c(C3CC3)cc12 [Example 6, 4-(N-(5-cyclopropyl-2-(4-fluorophenyl)-3-(methylcarbamoyl)benzofuran-6-yl)methylsulfonamido)-3-fluorophenylboronic acid]",11 to 200,1 to 10,1 to 10,> 1000,
"CNC(=O)c1c(-c2ccc(F)cc2)oc2cc(N(c3ccc(B(O)O)c(C#N)c3)S(C)(=O)=O)c(C3CC3)cc12 [Example 12, (2-cyano-4-(N-(5-cyclopropyl-2-(4-fluorophenyl)-3-(methylcarbamoyl)benzofuran-6-yl)methylsulfonamido)phenyl)boronic acid]",1 to 10,1 to 10,1 to 10,11 to 200,
"CNC(=O)c1c(-c2ccc(F)cc2)oc2cc(N(c3ccc(CCB(O)O)c(Cl)c3)S(C)(=O)=O)c(C3CC3)cc12 [Example 23, (2-Chloro-4-(N-(5-cyclopropyl-2-(4-fluorophenyl)-3-(methylcarbamoyl)benzofuran-6-yl)methylsulfonamido)phenethyl)boronic acid]",11 to 200,1 to 10,1 to 10,11 to 200,
CNC(=O)c1c(-c2ccc(F)cc2)oc2cc(N(c3ccc4c(c3)CCOB4O)S(C)(=O)=O)c(C3CC3)cc12 [Example 30],1 to 10,1 to 10,1 to 10,,
"CS(=O)(=O)N(c1ccc(B(O)O)c(Cl)c1)c1cc2oc(-c3ccc(Cl)cc3)c(C(=O)O)c2cc1C1CC1 [Example 13, 6-(N-(4-borono-3-chlorophenyl)methylsulfonamido)-2-(4-chlorophenyl)-5-cyclopropylbenzofuran-3-carboxylic acid]",> 1000,> 1000,> 1000,,
"CNC(=O)c1c(-c2ccc(F)cc2)oc2cc(N(c3ccc(OCB(O)O)cc3)S(C)(=O)=O)c(C3CC3)cc12 [Example 18, ((4-(N-(5-Cyclopropyl-2-(4-fluorophenyl)-3-(methylcarbamoyl)benzofuran-6-yl)methylsulfonamido)phenoxy)methyl)boronic acid]",11 to 200,1 to 10,,11 to 200,
"CNC(=O)c1c(-c2ccc(F)cc2)oc2cc(N(c3ccc(B(O)O)cn3)S(C)(=O)=O)c(C3CC3)cc12 [Example 8, 6-(N-(5-cyclopropyl-2-(4-fluorophenyl)-3-(methylcarbamoyl)benzofuran-6-yl)methylsulfonamido)pyridin-3-ylboronic acid]",> 1000,> 1000,> 1000,,
